Experimental data as given in patent US20150196568A1, “SYSTEM FOR USE BY COMPOUNDING PHARMACISTS TO PRODUCE HORMONE REPLACEMENT MEDICINE CUSTOMIZED FOR EACH CUSTOMER” (priority 2003, published 2015).

Test: ability of solvent combination to dissolve hormones
Assay type: physicochemical
Conditions: combination of ethoxy diglycol and propylene glycol in any ratio, compared with either solvent alone

## C[C@]12CC[C@H]3[C@@H](CCC4=CC(=O)CC[C@@]43C)[C@@H]1CC[C@@H]2O [testosterone]
  ability to dissolve: better than using any of the solvents alone
